Common to all, as to experiment: level (log10 ratio to DMSO vehicle control); higher = higher biomarker level / cell amount than vehicle control
Compound in experiment [1]: C=CC(=O)OCC(F)(F)C(F)(F)C(F)(F)COC(=O)C=C [1H,1H,5H,5H-Perfluoro-1,5-pentanediol diacrylate]
The conditions noted are these: 6700 nM; in DMSO. As to the method:
(§1)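 BioMAP Diversity Plus panel of 12 human primary cell co-culture systems (3C, 4H, LPS, SAg, BT, BF4T, BE3C, CASM3C, HDF3CGF, KF3CT, MyoF, Mphg). Compounds were added 1 h before stimulation and left for 24 h (MyoF 48 h; BT 72 h for soluble read-outs or 6 d for IgG). Biomarkers were read by ELISA, cytotoxicity by SRB, PBMC viability and proliferation by Alamar Blue. Each well value was divided by the mean of 8 DMSO control wells on the same plate and log10 transformed; duplicate blinded samples were tested at 4 concentrations.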

Compound in experiment [2]: FC(F)(F)C(F)(F)C(F)(F)C(F)(F)C(F)(F)C(F)(F)C(F)(F)I [1-Iodopentadecafluoroheptane]
The conditions noted are these: in DMSO. As to the method:
as §1

Compound in another experiment: FC(F)(F)C(F)(F)C(F)(F)CI [Heptafluorobutyl iodide]
The conditions noted are these: in DMSO. As to the method:
as §1

Compound in the next experiment: NC(=O)C(F)(F)C(F)(F)C(F)(F)C(F)(F)C(N)=O [Octafluoroadipamide]
The conditions noted are these: in DMSO. As to the method: as §1

Compound in a further experiment: NC(=O)C(F)(F)C(F)(F)C(F)(F)C(F)(F)F [Nonafluoropentanamide]
The conditions noted are these: in DMSO. As to the method: as §1

Compound in experiment [3]: O=S(=O)(Cl)C(F)(F)C(F)(F)C(F)(F)C(F)(F)C(F)(F)C(F)(F)C(F)(F)C(F)(F)F [Perfluoro-1-octanesulfonyl chloride]
The settings on record: in DMSO. As for the experimental part: as §1

Compound in experiment [4]: O=S(=O)(O)CCC(F)(F)C(F)(F)C(F)(F)C(F)(F)C(F)(F)C(F)(F)F [6:2 Fluorotelomer sulfonic acid]
The conditions noted are these: in DMSO. As to the method:
as §1

± gives the standard deviation of the averaged measurements.

BF4T:uPA: the “level (log10)” value in experiment [1] was -0.019 ± 0.013; in experiment [2] (6700 nM), -0.0365 ± 0.016; in experiment [2] (20000 nM) it was -0.026 ± 0.016; with Heptafluorobutyl iodide (6700 nM), -0.008 ± 0.014; in the experiment with Heptafluorobutyl iodide (20000 nM), -0.0095 ± 0.022; in the experiment with Heptafluorobutyl iodide (60000 nM), -0.0045 ± 0.016. The “level (log10)” value was -0.0405 ± 0.0092 with Octafluoroadipamide (6700 nM); -0.0325 ± 0.021 in the experiment with Octafluoroadipamide (20000 nM); -0.0165 ± 0.026 in the experiment with Octafluoroadipamide (60000 nM); -0.03 ± 0.023 with Nonafluoropentanamide (6700 nM); 0.009 ± 0.013 with Nonafluoropentanamide (20000 nM); 0.025 ± 0.0014 with Nonafluoropentanamide (60000 nM). In addition, the “level (log10)” value is -0.028 ± 0.03 in experiment [3] (6700 nM); -0.025 ± 0.025 in experiment [3] (20000 nM); -0.113 ± 0.046 in experiment [3] (60000 nM); 0.0085 ± 0.019 in experiment [4] (6700 nM); -0.013 ± 0.0028 in experiment [4] (20000 nM); -0.001 ± 0.018 in experiment [4] (60000 nM).
As for BT:PBMC Cytotoxicity, the “level (log10)” value in experiment [1] was -0.201 ± 0.0092; in experiment [2] (6700 nM), 0.014 ± 0.0057; in experiment [2] (20000 nM), 0.0075 ± 0.049; in the experiment with Heptafluorobutyl iodide (6700 nM) it was 0.0515 ± 0.029; with Heptafluorobutyl iodide (20000 nM), 0.01 ± 0.0028; with Heptafluorobutyl iodide (60000 nM) it was 0.0125 ± 0.032. In addition, the “level (log10)” value with Octafluoroadipamide (6700 nM) is 0.0125 ± 0.0021; with Octafluoroadipamide (20000 nM) it was 0.018 ± 0.011; with Octafluoroadipamide (60000 nM), 0.005 ± 0.051; in the experiment with Nonafluoropentanamide (6700 nM) it was 0.024 ± 0.0042; with Nonafluoropentanamide (20000 nM), 0.02 ± 0.0028; with Nonafluoropentanamide (60000 nM) it was 0.0155 ± 0.011. The “level (log10)” value in experiment [3] (6700 nM) worked out at 0.0495 ± 0.016; in experiment [3] (20000 nM), 0.055; in experiment [3] (60000 nM), 0.114 ± 0.0021; in experiment [4] (6700 nM), 0.007; in experiment [4] (20000 nM), 0.0235 ± 0.0064; in experiment [4] (60000 nM) it was 0.045 ± 0.0014.
As to BT:sIL-2, the “level (log10)” value in experiment [1] is -0.651 ± 0.08; in experiment [2] (6700 nM), -0.113 ± 0.07; in experiment [2] (20000 nM), -0.017 ± 0.081; with Heptafluorobutyl iodide (6700 nM), 0.001 ± 0.071; in the experiment with Heptafluorobutyl iodide (20000 nM) it was 0.0735 ± 0.028; with Heptafluorobutyl iodide (60000 nM), -0.027 ± 0.058. Also, the “level (log10)” value with Octafluoroadipamide (6700 nM) is 0.137 ± 0.073; with Octafluoroadipamide (20000 nM), 0.116 ± 0.061; with Octafluoroadipamide (60000 nM), 0.126 ± 0.027; with Nonafluoropentanamide (6700 nM), 0.0345 ± 0.053; with Nonafluoropentanamide (20000 nM), 0.002 ± 0.033; with Nonafluoropentanamide (60000 nM) it was -0.0105 ± 0.011. The “level (log10)” value in experiment [3] (6700 nM) was 0.0385 ± 0.047; in experiment [3] (20000 nM) it was 0.104 ± 0.042; in experiment [3] (60000 nM), 0.13 ± 0.018; in experiment [4] (6700 nM) it was -0.0555 ± 0.011; in experiment [4] (20000 nM), 0.0325 ± 0.018; in experiment [4] (60000 nM), -0.01 ± 0.031.
Turning to BT:sIL-17A, the “level (log10)” value in experiment [1] was -1.14 ± 0.22; in experiment [2] (6700 nM), -0.213 ± 0.3; in experiment [2] (20000 nM), -0.112 ± 0.31; in the experiment with Heptafluorobutyl iodide (6700 nM), 0.009 ± 0.02; in the experiment with Heptafluorobutyl iodide (20000 nM), 0.009 ± 0.045; with Heptafluorobutyl iodide (60000 nM) it was -0.176 ± 0.11. Besides, the “level (log10)” value with Octafluoroadipamide (6700 nM) is -0.107 ± 0.018; with Octafluoroadipamide (20000 nM), -0.0535 ± 0.098; with Octafluoroadipamide (60000 nM), 0.0055 ± 0.025; with Nonafluoropentanamide (6700 nM) it was -0.145 ± 0.18; with Nonafluoropentanamide (20000 nM), 0.05 ± 0.064; with Nonafluoropentanamide (60000 nM) it was -0.213 ± 0.17. Also, the “level (log10)” value in experiment [3] (6700 nM) is -0.0095 ± 0.08; in experiment [3] (20000 nM), 0.0335 ± 0.071; in experiment [3] (60000 nM) it was -0.084 ± 0.15; in experiment [4] (6700 nM), -0.135 ± 0.05; in experiment [4] (20000 nM), -0.005 ± 0.081; in experiment [4] (60000 nM), -0.126 ± 0.21.
As to BT:sTNF-alpha, the “level (log10)” value in experiment [1] is -0.94 ± 0.21; in experiment [2] (6700 nM) it was -0.051 ± 0.018; in experiment [2] (20000 nM) it was 0.093 ± 0.17; with Heptafluorobutyl iodide (6700 nM), -0.035 ± 0.22; with Heptafluorobutyl iodide (20000 nM), 0.149 ± 0.096; with Heptafluorobutyl iodide (60000 nM) it was 0.0905 ± 0.069. Besides, the “level (log10)” value with Octafluoroadipamide (6700 nM) was 0.058 ± 0.23; with Octafluoroadipamide (20000 nM), 0.116 ± 0.098; with Octafluoroadipamide (60000 nM), 0.194 ± 0.077; with Nonafluoropentanamide (6700 nM), 0.089 ± 0.086; with Nonafluoropentanamide (20000 nM), 0.031 ± 0.069; with Nonafluoropentanamide (60000 nM), 0.0565 ± 0.04. In addition, the “level (log10)” value is 0.067 ± 0.042 in experiment [3] (6700 nM); 0.126 ± 0.016 in experiment [3] (20000 nM); 0.102 ± 0.16 in experiment [3] (60000 nM); -0.011 ± 0.031 in experiment [4] (6700 nM); 0.0335 ± 0.07 in experiment [4] (20000 nM); -0.021 ± 0.04 in experiment [4] (60000 nM).
In the case of LPS:CD62E/E-Selectin, the “level (log10)” value in experiment [1] was -0.0265 ± 0.022; in experiment [2] (6700 nM), -0.0155 ± 0.005; in experiment [2] (20000 nM), -0.002 ± 0.0071; with Heptafluorobutyl iodide (6700 nM) it was 0.005 ± 0.1; in the experiment with Heptafluorobutyl iodide (20000 nM), -0.013 ± 0.0028; in the experiment with Heptafluorobutyl iodide (60000 nM), 0.026 ± 0.068. The “level (log10)” value with Octafluoroadipamide (6700 nM) was -0.007 ± 0.02; with Octafluoroadipamide (20000 nM), -0.0035 ± 0.016; in the experiment with Octafluoroadipamide (60000 nM) it was 0.022 ± 0.0028; with Nonafluoropentanamide (6700 nM) it was 0.003 ± 0.0042; in the experiment with Nonafluoropentanamide (20000 nM), 0.0175 ± 0.005; in the experiment with Nonafluoropentanamide (60000 nM) it was 0.0215 ± 0.029. The “level (log10)” value in experiment [3] (6700 nM) was -0.0105 ± 0.0078; in experiment [3] (20000 nM) it was -0.0095 ± 0.00071; in experiment [3] (60000 nM), 0.0585 ± 0.016; in experiment [4] (6700 nM), 0.034 ± 0.021; in experiment [4] (20000 nM), 0.007 ± 0.014; in experiment [4] (60000 nM), 0.027 ± 0.023.
For LPS:CD106/VCAM-1, the “level (log10)” value in experiment [1] is -0.118 ± 0.071; in experiment [2] (6700 nM), 0.0045 ± 0.016; in experiment [2] (20000 nM), -0.005 ± 0.0071; in the experiment with Heptafluorobutyl iodide (6700 nM), -0.0355 ± 0.0092; with Heptafluorobutyl iodide (20000 nM), -0.001 ± 0.018; with Heptafluorobutyl iodide (60000 nM), -0.0485 ± 0.054. For the same test system, the “level (log10)” value was -0.022 ± 0.047 in the experiment with Octafluoroadipamide (6700 nM); -0.0065 ± 0.0092 with Octafluoroadipamide (20000 nM); 0.008 ± 0.021 with Octafluoroadipamide (60000 nM); -0.0075 ± 0.028 in the experiment with Nonafluoropentanamide (6700 nM); -0.0135 ± 0.005 in the experiment with Nonafluoropentanamide (20000 nM); 0.0035 ± 0.011 with Nonafluoropentanamide (60000 nM). For the same test system, the “level (log10)” value in experiment [3] (6700 nM) is -0.018 ± 0.0071; in experiment [3] (20000 nM), -0.0065 ± 0.0092; in experiment [3] (60000 nM), -0.022 ± 0.02; in experiment [4] (6700 nM) it was -0.0055 ± 0.067; in experiment [4] (20000 nM), -0.0005 ± 0.074; in experiment [4] (60000 nM), 0.0115 ± 0.042.

The values are drawn from the supplement of paper PMC10331698.
